The values that follow come from US20050186587A1, “Method for screening a substance which can suppress degradation of a nuclear receptor or a substance which can promote degradation of a nuclear receptor” (Interite, Inc., priority 2004, published 2005).

In series [1] the target is T1, estrogen receptor alpha (ERα) (Homo sapiens, UniProt P03372).
T1 construct: ERα was first purified from MCF-7 cell nucleus extract by immune precipitation; endogenous in cells; host or cells: MCF-7 cells
Briefly: Amount of ERα in MCF-7 cell nucleus extracts by Western blotting (Test Example 1). The format is cell-based. The settings on record: MCF-7 cells, MG132 at 1 μM, both with and without estrogen, FIG. 1(b) lanes 3 and 4. For orientation: A western blot detects proteins with antibodies after separation by electrophoresis.
Description: (§1) HeLa cells, human breast cancer-derived MCF-7 cells and human fetal kidney-derived 293 cells were cultured at 37° C. in Dulbecco's modified Eagle's medium (DMEM) containing 10% FCS in humidified air containing 5% (partial pressure) carbon dioxide gas.
10 μg of each extract of MCF-7 cells and 293 cells was isolated by 8% or 10% SDS-PAGE, and transferred to a nitrocellulose membrane. This membrane was incubated for 1 hour in a blocking solution of 1% BSA (bovine serum albumin) and 5% skim milk added to 25 mM tris-buffered saline containing 0.02% Tween20 (T-TBS), and then reacted with the respective antibodies for 1 hour at 25° C. After being washed 3 times for 10 minutes each in 25° C. T-TBS, the membranes were incubated for 1 minute at 25° C. with peroxidase-bound goat anti-mouse antibodies. Protein that reacted with the antibodies was made visible with an Amersham Pharmacia high-sensitivity chemical luminescence detection system (ECL).

In series [2] the test system is ERαΔAD. The format is cell-based, human. The conditions noted are these: 293 cells, 1 μM MG132, FIG. 2 lanes 2 and 4.
Description: as §1
(§2) The target DNA was diluted with 100 μL of OptiMEM medium (Life Technologies, Inc.). The amount of DNA was adjusted to a total of 1 μg by addition of blank vector. 10 μL of lipofectamine reagent (Life Technologies, Inc.) was diluted in the same way with 100 μL of OptiMEM medium. After being left at room temperature for 5 minutes, the two liquids were mixed and left for an additional 20 minutes to form a complex. This mixture was then dripped directly onto cells seeded on 12-well plates and cultured to 40-50% confluence in DMEM containing 0.2% FCS treated with activated charcoal, and transfection was performed. 6 hours after transfection normal medium was substituted, and after 24 hours' further culture the ligand was added.
10 μg of each extract of MCF-7 cells and 293 cells was isolated by 8% or 10% SDS-PAGE, and transferred to a nitrocellulose membrane. […] Protein that reacted with the antibodies was made visible with an Amersham Pharmacia high-sensitivity chemical luminescence detection system (ECL). […]
The target of series [3] is T2, Flag-ERαΔAD (Homo sapiens, UniProt P03372).
T2 construct: ERαΔAD (1-534) consisting of amino acids 1 through 534; expressed in transfected cells; host or cells: 293 cells
T2 sequence (P03372 1-534): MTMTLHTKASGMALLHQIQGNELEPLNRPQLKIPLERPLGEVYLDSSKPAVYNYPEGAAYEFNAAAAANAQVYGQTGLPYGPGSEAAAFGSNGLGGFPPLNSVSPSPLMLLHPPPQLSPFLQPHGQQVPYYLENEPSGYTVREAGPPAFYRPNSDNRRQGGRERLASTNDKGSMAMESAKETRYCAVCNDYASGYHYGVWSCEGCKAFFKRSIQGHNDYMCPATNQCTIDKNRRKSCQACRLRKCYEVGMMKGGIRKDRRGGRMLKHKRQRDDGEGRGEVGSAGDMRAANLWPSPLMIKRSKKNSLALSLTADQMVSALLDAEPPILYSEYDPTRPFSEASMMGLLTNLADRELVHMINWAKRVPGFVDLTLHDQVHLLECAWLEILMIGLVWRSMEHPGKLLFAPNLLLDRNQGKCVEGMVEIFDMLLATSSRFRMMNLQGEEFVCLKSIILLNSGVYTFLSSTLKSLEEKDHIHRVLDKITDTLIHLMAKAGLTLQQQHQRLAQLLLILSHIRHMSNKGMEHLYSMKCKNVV
In words: Ubiquitination of Flag-ERαΔAD expressed in 293 cells, immune precipitation and anti-ubiquitin Western blotting. The format is cell-based. The settings on record: no estrogen added but MG132 added, FIG. 3 lane 3.
Description: About 50 μg of MCF-7 cell nucleus extract or 293 cell nucleus extract was incubated for 1 hour at 4° C. in 25 mM tris-buffered saline containing 0.1% Tween20 (T-TBS) together with 50 μg of either glutathione sepharose beads or anti-Flag tag antibody beads (Santa Cruz Biotechnology). Beads to which protein had bound were washed 4 times with 25 mM tris-buffered saline containing 0.1% Tween20 and centrifuged for 1 minute at 5000 rpm, and the beads were collected. Protein was eluted from the beads by boiling in loading buffer.
(§3) Western blotting using the respective antibodies was accomplished by well-known methods (Yanagisawa, J. et al, Molecular Cell (2002) March, 9(3):553-562) with some alterations. 10 μg of each extract of MCF-7 cells and 293 cells was isolated by 8% or 10% SDS-PAGE, and transferred to a nitrocellulose membrane. This membrane was incubated for 1 hour in a blocking solution of 1% BSA (bovine serum albumin) and 5% skim milk added to 25 mM tris-buffered saline containing 0.02% Tween20 (T-TBS), and then reacted with the respective antibodies for 1 hour at 25° C. After being washed 3 times for 10 minutes each in 25° C. T-TBS, the membranes were incubated for 1 minute at 25° C. with peroxidase-bound goat anti-mouse antibodies. Protein that reacted with the antibodies was made visible with an Amersham Pharmacia high-sensitivity chemical luminescence detection system (ECL).

Series [4] has as its system ERα, ERα(V364E), ERα(C447A), ERαΔAD or ERα(L540Q). In words: Amount of normal and mutant ERα protein in 293 cells with proteasome inhibitor (Test Example 8, FIG. 11). Type of series: cell-based, human. The settings on record: MG132 added to the cells, FIG. 11 lanes 1 through 5. The protocol: CHIP or CHIPΔUbox (a mutant having the ubiquitin ligase activity removed) were made to be expressed in cells already co-expressing normal ERα and a dominant negative mutant of ERα, and the transcriptional activation ability of ERα was measured. […] The amount of ERα in the cell nucleus extract was measured at the same time by Western blotting. ERα(V364E), ERα(C447A), ERαΔAD and ERα(L540Q) were used as the dominant negative mutants of ERα. […] ERαΔAD is a helix 12 deletion mutant, while ERα(L540Q) is a helix 12 single-residue substitution mutant, and the transcriptional activity of both is low because they can no longer bind to transcriptional activation factors. ERαΔAD and ERα(L540Q) are not temperature sensitive.
The amount of protein was also slightly lower in the case of ERαΔAD (See FIG. 11 lane 4).

For series [5], the target named is T3, ERα and CHIP (Homo sapiens, UniProt P03372).
T3 sequence (P03372 1-595): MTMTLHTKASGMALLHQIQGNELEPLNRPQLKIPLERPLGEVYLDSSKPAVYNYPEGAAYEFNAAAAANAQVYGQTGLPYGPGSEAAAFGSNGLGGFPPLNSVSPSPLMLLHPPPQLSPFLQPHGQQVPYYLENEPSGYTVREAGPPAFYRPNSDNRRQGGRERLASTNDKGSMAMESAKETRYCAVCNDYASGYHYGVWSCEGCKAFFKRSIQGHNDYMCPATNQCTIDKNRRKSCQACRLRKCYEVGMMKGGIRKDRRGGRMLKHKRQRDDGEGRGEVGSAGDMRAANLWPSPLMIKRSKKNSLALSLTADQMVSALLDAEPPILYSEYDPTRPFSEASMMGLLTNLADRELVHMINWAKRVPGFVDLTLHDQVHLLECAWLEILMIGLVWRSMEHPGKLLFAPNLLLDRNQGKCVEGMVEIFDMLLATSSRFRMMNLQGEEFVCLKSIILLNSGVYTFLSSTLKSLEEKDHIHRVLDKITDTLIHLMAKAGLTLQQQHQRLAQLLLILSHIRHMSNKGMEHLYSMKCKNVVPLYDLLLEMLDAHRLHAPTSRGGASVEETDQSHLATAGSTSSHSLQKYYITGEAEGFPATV
The conditions noted are these: 293 cells, 24 hours, 10 nM estrogen, 1 μM tamoxifen (OHT) or 100 nM fulvestrant (ICI), FIG. 6.
Description: as §2
GST pull-down was performed by well-known methods (Yanagisawa, J. et al, Molecular Cell (2002) March, 9(3):553-562). […]
Western blotting using the respective antibodies was accomplished by well-known methods (Yanagisawa, J. et al, Molecular Cell (2002) March, 9(3):553-562) with some alterations. […] Protein that reacted with the antibodies was made visible with an Amersham Pharmacia high-sensitivity chemical luminescence detection system (ECL). […]

The target of series [6] is T4, ERα (Homo sapiens, UniProt P03372).
T4 sequence (P03372 1-595): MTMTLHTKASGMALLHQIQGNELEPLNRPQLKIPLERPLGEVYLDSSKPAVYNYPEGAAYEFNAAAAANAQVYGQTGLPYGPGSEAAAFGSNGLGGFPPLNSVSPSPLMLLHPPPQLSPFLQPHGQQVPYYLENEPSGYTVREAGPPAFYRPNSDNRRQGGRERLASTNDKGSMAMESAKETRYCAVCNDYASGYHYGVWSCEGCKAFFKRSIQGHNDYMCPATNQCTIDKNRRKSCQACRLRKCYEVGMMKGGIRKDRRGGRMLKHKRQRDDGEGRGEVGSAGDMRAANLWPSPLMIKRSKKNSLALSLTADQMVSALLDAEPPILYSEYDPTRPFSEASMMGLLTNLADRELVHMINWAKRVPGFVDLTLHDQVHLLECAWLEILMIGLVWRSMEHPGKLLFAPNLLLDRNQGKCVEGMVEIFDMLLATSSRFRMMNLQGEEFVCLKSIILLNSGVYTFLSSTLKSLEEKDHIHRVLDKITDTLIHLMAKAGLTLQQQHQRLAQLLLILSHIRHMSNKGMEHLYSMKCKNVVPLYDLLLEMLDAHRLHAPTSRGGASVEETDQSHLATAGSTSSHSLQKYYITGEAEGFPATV
The settings on record: 293 cells, 24 hours, 1 μM OHT or 100 nM ICI (or estrogen), FIG. 7, FIGS. 8(a) and (b).
Description: as §3

Series [7] concerns the target ERαΔAD, P03372.
The target in series [8] is T5, estrogen receptor alpha (ERα), not bound to a ligand, P03372.
T5 chain: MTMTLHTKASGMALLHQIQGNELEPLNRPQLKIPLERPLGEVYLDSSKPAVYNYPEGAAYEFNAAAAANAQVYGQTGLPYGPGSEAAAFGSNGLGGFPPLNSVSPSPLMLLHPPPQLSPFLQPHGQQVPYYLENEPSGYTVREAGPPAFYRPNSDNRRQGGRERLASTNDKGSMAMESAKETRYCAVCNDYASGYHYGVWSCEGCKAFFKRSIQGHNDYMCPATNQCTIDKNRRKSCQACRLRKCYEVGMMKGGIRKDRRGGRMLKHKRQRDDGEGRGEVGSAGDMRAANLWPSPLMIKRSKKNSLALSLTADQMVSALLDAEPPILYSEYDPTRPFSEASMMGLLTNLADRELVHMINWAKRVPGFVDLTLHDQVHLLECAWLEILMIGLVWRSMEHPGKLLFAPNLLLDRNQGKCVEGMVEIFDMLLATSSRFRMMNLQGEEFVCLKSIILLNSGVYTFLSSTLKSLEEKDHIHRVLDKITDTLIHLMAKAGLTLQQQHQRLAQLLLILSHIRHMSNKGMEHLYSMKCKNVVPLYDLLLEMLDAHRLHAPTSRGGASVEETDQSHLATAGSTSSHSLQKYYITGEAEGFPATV

Where a SMILES comes first, the peptide text is derived from it. The star is where a group is joined. Cbz = O=C(OCc1ccccc1)*

Consider `CC(C)C[C@@H](C=O)NC(=O)[C@H](CC(C)C)NC(=O)[C@H](CC(C)C)NC(=O)OCc1ccccc1` [MG132] (Cbz-Leu-Leu-Leu-aldehyde), for which, in series [1], the “amount of ERα” value is “increased dramatically”. The “degradation of ERαΔAD” value in series [2] is on record as “inhibited”. Also, the “ubiquitinated ERαΔAD (Flag-ERαΔAD-Ub)” value in series [3] is “strong accumulation of a polyubiquitin protein”. Further, in series [4], the “amount of expression of mutant ERα versus normal ERα” value was “no difference between the various mutants and normal ERα”.

Turning to `C[C@]12CC[C@@H]3c4ccc(O)cc4C[C@@H](CCCCCCCCC[S+]([O-])CCCC(F)(F)C(F)(F)F)[C@H]3[C@@H]1CC[C@@H]2O` (some centres unmarked) [fulvestrant], the “co-precipitation of ERα with CHIP” value in series [5] is “co-precipitated with CHIP only when cultured without the addition of a ligand”. Also, the “degradation of ERα by CHIP” value in series [6] was “block degradation of ERα by CHIP”.

B1: CHIP (carboxyl-terminus of Hsc70 interacting protein) (protein)
chain: MKGKEEKEGGARLGAGGGSPEKSPSAQELKEQGNRLFVGRKYPEAAACYGRAITRNPLVAVYYTNRALCYLKMQQHEQALADCRRALELDGQSVKAHFFLGQCQLEMESYDEAIANLQRAYSLAKEQRLNFGDDIPSALRIAKKKRWNSIEERRIHQESELHSYLSRLIAAERERELEECQRNHEGDEDDSHVRAQQACIEAKHDKYMADMDELFSQVDEKRKKRDIPDYLCGKISFELMREPCITPSGITYDRKDIEEHLQRVGHFDPVTGSPLTQEQFIPNLAMKEVIDAFISENGWVEDY
In the case of B1, the “amount of degradation of ERαΔAD measured by Western blotting” value in series [7] is “both ERαΔAD and ERα were strongly degraded when estrogen was not added (see FIG. 7, lane 3). This degradation increased when the expressed amount of CHIP was increased”. For the same molecule, in series [8], the “amount of degradation of ERα measured by Western blotting” value is “both ERαΔAD and ERα were strongly degraded when estrogen was not added (see FIG. 7, lane 3). This degradation increased when the expressed amount of CHIP was increased”.
